According to ChEMBL document CHEMBL1158980, “Bioactive neolignans from Endlicheria dysodantha” (J Nat Prod, 1991):
Converted amounts (≈) assume the structure as drawn. The source made the active and inactive calls. The calls are words filed in the database; no cut-off is given here.

Legend:
[1] = system: A549; assay: Cytotoxicity against human A549 cells; type: functional; settings: read-out: ED50 (the source's name)
[2] = system: Agrobacterium tumefaciens; assay: Antitumor activity against Agrobacterium tumefaciens-induced crown gall tumor in potato tubers; type: functional
[3] = system: Artemia; assay: Toxicity against brine shrimp; type: organism-based; settings: in vivo
[4] = system: MCF7; assay: Cytotoxicity against human MCF7 cells; type: functional; settings: read-out: ED50 (the source's name)
[5] = system: HT-29; assay: Cytotoxicity against human HT-29 cells; type: functional; settings: read-out: ED50 (the source's name)

Compound	EC50 [1] [µg/mL]	inhibition [2]	LC50 [3] [ppm]	EC50 [4] [µg/mL]	EC50 [5] [µg/mL]	inhibition (INH) [2] [%]
C=CC[C@]12C=C(OC)C(=O)C=C1O[C@@H](c1cc(OC)c3c(c1)OCO3)[C@H]2C	> 100	inactive	162.1	79 (≈ 213 µM)	96.5 (≈ 261 µM)	
COc1cccc2c1C(=O)c1c(O)c3c(c(O)c1C2=O)C[C@@](O)(C(=O)CO)C[C@@H]3O[C@H]1C[C@H](N)[C@H](O)[C@H](C)O1 [DOXORUBICIN]	0.0292 (≈ 0.0537 µM)		4.05	0.115 (≈ 0.212 µM)	0.0344 (≈ 0.0633 µM)	68.8
C=CC[C@@]12C[C@@H](OC)C(=O)C=C1O[C@@H](c1cc(OC)c3c(c1)OCO3)[C@H]2C [DYSODANTHIN A]	4.23 (≈ 11.4 µM)		47.53	5.51 (≈ 14.8 µM)	2.39 (≈ 6.42 µM)	32.2
C=CC[C@@]12C[C@@H](OC)C(=O)C=C1O[C@@H](c1cc(OC)c(OC)c(OC)c1)[C@H]2C [DYSODANTHIN B]	3.68 (≈ 9.47 µM)		334.2	4.09 (≈ 10.5 µM)	2.76 (≈ 7.1 µM)	52
C=CC[C@]1([C@H](C)[C@@H](OC(C)=O)c2cc(OC)c(OC)c(OC)c2)C[C@@H](OC)C=CC1=O [MEGAPHONE ACETATE]	2.59		253.6	3.66	0.552	48.3
